In publication PMC5813187, “Enhanced Permeability and Binding Activity of Isobutylene‐Grafted Peptides” (Chembiochem, 2017):
Where a SMILES comes first, the peptide text is derived from it.

How the values were obtained:
[1] = Stability test in presence of GSH; format: physicochemical; details: around 1 mM peptide in H2O, 1 mM GSH, 37 °C, 48 h, HPLC
Description: (§1) GSH solution (to 1 mM) or 1 μL of reconstituted human plasma (Sigma -Aldrich), and the resulting
mixture vortexed for 30 s and then shaken at 37 °C. After 48 h, an aliquot of each reaction mixture was […]

[2] = Stability test in human plasma; format: in vitro ADME; details: 100 μL of around 1 mM peptide in H2O with 1 μL reconstituted human plasma (Sigma-Aldrich), 37 °C, 48 h, HPLC
Description: as §1
mixture vortexed for 30 s and then shaken at 37 °C. […]
DAD1 E, Sig=280,4 Ref =360,100 (SHUANG\ISOBUT YLENE STAPLED SOMATOST AT IN_PLASMA.D)

[3] = PAMPA, pH 7.4

stability in the presence of glutathione [1]	stability in the presence of glutathione ([1]; listed as Stapled Somatostatin)	stability in human plasma [2]	stability in human plasma ([2]; listed as Stapled Somatostatin)	Compound	Permeability [3]	−log P e [3]
fully stable	No significant degradation	fully stable	No significant degradation	C=C1CSC[C@@H](C(=O)O)NC(=O)[C@H](CO)NC(=O)[C@H]([C@@H](C)O)NC(=O)[C@H](Cc2ccccc2)NC(=O)[C@H]([C@@H](C)O)NC(=O)[C@H](CCCCN)NC(=O)[C@H](Cc2c[nH]c3ccccc23)NC(=O)[C@H](Cc2ccccc2)NC(=O)[C@H](Cc2ccccc2)NC(=O)[C@H](CC(N)=O)NC(=O)[C@H](CCCCN)NC(=O)[C@@H](NC(=O)CNC(=O)[C@H](C)N)CSC1 [stapled somatostatin]	–	–
–	–	–	–	CC(=O)N[C@@H](CS)C(=O)N1CCC[C@H]1C(=O)N[C@@H](CC(C)C)C(=O)N[C@@H](CC(=O)O)C(=O)N[C@@H](Cc1ccccc1)C(=O)N[C@@H](C)C(=O)N[C@@H](CS)C(N)=O [II] (Ac-CPLDFAC-NH2)	0.76 ×10⁻⁶ cm/s	5.12
–	–	–	–	CC(=O)N[C@@H](CS)C(=O)N1CCC[C@H]1C(=O)N[C@@H](CC(=O)O)C(=O)N[C@@H](Cc1ccccc1)C(=O)N[C@@H](CC(C)C)C(=O)N[C@@H](C)C(=O)N[C@@H](CS)C(N)=O [III] (Ac-CPDFLAC-NH2)	<0.001 ×10⁻⁶ cm/s	–
